In brackets after ≈: the same amount, converted by molar mass. Several values for one entry are separate records, joined by “and”; a condition that tells them apart may be missing. Equal values may be shown once. One block for each compound: values may come before it.
What was measured:
Experiment in all cases: ≥ marks a high value that may be exact or a test limit, other limits are often not marked, values filed in µg/mL are converted to µM
[1] = test system: Acinetobacter baumannii ATCC 19606
[2] = test system: Acinetobacter johnsonii NCDC 0072
[3] = test system: Bacillus cereus NCDC 0240
[4] = test system: Bacillus subtilis ATCC 6051
Escherichia coli D31 = test system: Escherichia coli D31
[5] = test system: Escherichia coli MTCC 0723
[6] = test system: Klebsiella pneumoniae ATCC 700603
[7] = test system: Listeria monocytogenes ATCC 19111
[8] = test system: Pseudomonas aeruginosa ATCC 27853
[9] = test system: Pseudomonas aeruginosa NCDC 0105
[10] = test system: Pseudomonas aeruginosa PAO1
[11] = test system: Salmonella enterica subsp. enterica serovar Typhimurium ATCC 14028
[12] = test system: Salmonella enterica subsp. enterica serovar Typhimurium ATCC 700931
[13] = test system: Staphylococcus aureus ATCC 29213
[14] = test system: Staphylococcus aureus ATCC 35556
[15] = test system: Staphylococcus aureus NCDC 0111
[16] = test system: Candida albicans ATCC 2002
[17] = test system: Candida albicans ATCC 90028
[18] = test system: Candida albicans NCYC 1467
[19] = test system: Candida parapsilosis ATCC 22019
[20] = test system: Enterobacter cloacae ATCC 13047
[21] = test system: Enterococcus faecalis ATCC 29212
[22] = test system: Escherichia coli ATCC 25922
Escherichia coli IS117# = test system: Escherichia coli IS117#
Escherichia coli IS218# = test system: Escherichia coli IS218#
Escherichia coli IS37# = test system: Escherichia coli IS37#
[23] = test system: Escherichia coli NCTC 10418
[24] = test system: Klebsiella pneumoniae IS59#
[25] = test system: Pseudomonas aeruginosa CMCCB 1010
[26] = test system: Pseudomonas aeruginosa IS350#
Shigella dysenteriae = test system: Shigella dysenteriae
[27] = test system: Staphylococcus aureus ATCC 25923
[28] = test system: Staphylococcus aureus IS10#
[29] = test system: Staphylococcus aureus IS37#
[30] = test system: Staphylococcus aureus NCTC 10788
Escherichia coli HB101 = test system: Escherichia coli HB101
Escherichia coli J2210 = test system: Escherichia coli J2210
Escherichia coli JJ2489 = test system: Escherichia coli JJ2489
Escherichia coli JW0013 = test system: Escherichia coli JW0013
[31] = test system: Escherichia coli JW0368 ΔsbmA
[32] = test system: Escherichia coli JW2778 ΔygdD
Escherichia coli MC1041 = test system: Escherichia coli MC1041
Escherichia coli = test system: Escherichia coli
[33] = test system: Salmonella enterica serovar Tennessee
[34] = test system: Salmonella enterica subsp. enterica serovar Enteritidis MH91989
[35] = test system: Salmonella enterica subsp. enterica serovar Infantis
[36] = test system: Salmonella enterica subsp. enterica serovar Newport
[37] = test system: Salmonella typhimurium SL1344
[38] = test system: Escherichia coli KCTC 1682
[39] = test system: Pseudomonas aeruginosa KCTC 1637
[40] = test system: Staphylococcus aureus KCTC 1621
[41] = test system: Staphylococcus aureus NCTC 12981
[42] = test system: Staphylococcus aureus USA 100
[43] = test system: Staphylococcus epidermidis KCTC 1917

MIC (Escherichia coli J2210): 0.786 µM (≈ 1.84 µg/mL) | MIC (Escherichia coli JJ2489): 0.6 µM (≈ 1.4 µg/mL) | MIC (Escherichia coli JW0013): 0.15 µM (≈ 0.351 µg/mL) | MIC [31]: 2.4 µM (≈ 5.62 µg/mL) | MIC [32]: 0.6 µM (≈ 1.4 µg/mL) | MIC (Escherichia coli MC1041): 0.416 µM (≈ 0.974 µg/mL) | MIC (Escherichia coli): > 0.416 µM and 0.6 µM | MIC [33]: 0.6 µM (≈ 1.4 µg/mL) | MIC [34]: 1.2 µM (≈ 2.81 µg/mL) | MIC [35]: 0.6 µM (≈ 1.4 µg/mL) | MIC [36]: 0.416 µM (≈ 0.974 µg/mL) | MIC [37]: 1.2 µM (≈ 2.81 µg/mL)
SMILES: CC[C@H](C)[C@H](NC(=O)[C@@H]1CCCN1C(=O)[C@H](CCCN=C(N)N)NC(=O)[C@@H]1CCCN1C(=O)[C@@H]1CCCN1C(=O)[C@@H](NC(=O)[C@@H]1CCCN1C(=O)[C@H](CCCN=C(N)N)NC(=O)[C@@H]1CCCN1C(=O)[C@H](CC(C)C)NC(=O)[C@H](Cc1ccc(O)cc1)NC(=O)[C@H](CO)NC(=O)CNC(=O)[C@H](CCCCN)NC(=O)[C@H](CC(=O)O)NC(=O)[C@@H](N)C(C)C)[C@@H](C)O)C(=O)N[C@@H](Cc1ccc(O)cc1)C(=O)N[C@@H](CC(N)=O)C(=O)N[C@@H](CCCN=C(N)N)C(=O)N[C@@H](CC(N)=O)C(=O)O [VDKGSYLPRPTPPRPIYNRN]

MIC [38]: ≥ 45.5 µM | MIC [23]: ≥ 182 µM | MIC [39]: ≥ 45.5 µM | MIC [40]: ≥ 45.5 µM | MIC [41]: ≥ 182 µM | MIC [42]: ≥ 50 µM | MIC [43]: 11.4 µM (≈ 7.99 µg/mL)
SMILES: NC(=O)[C@H](CCCN=C(N)N)NC(=O)[C@H](Cc1c[nH]c2ccccc12)NC(=O)[C@H](CCCN=C(N)N)NC(=O)[C@@H](N)Cc1c[nH]c2ccccc12 [WRWR]

More lines, now with the values behind:

SMILES: CC[C@H](C)[C@H](NC(=O)[C@H](Cc1c[nH]c2ccccc12)NC(=O)[C@@H](NC(=O)[C@H](Cc1c[nH]c2ccccc12)NC(=O)[C@@H]1CCCN1C(=O)[C@@H](NC(=O)[C@H](C)N)[C@@H](C)CC)[C@@H](C)CC)C(=O)N[C@@H](Cc1c[nH]c2ccccc12)C(=O)N[C@@H](CCCN=C(N)N)C(=O)N[C@@H](CC(C)C)C(=O)N[C@@H](CC(C)C)C(=O)N[C@@H](CCCN=C(N)N)C(=O)N[C@@H](CCCCN)C(=O)NCC(=O)O [AIPWIWIWRLLRKG]
MIC [1]: 3.75 µM (≈ 6.78 µg/mL) | MIC [2]: 12.5 µM (≈ 22.6 µg/mL) | MIC [3]: 12.5 µM (≈ 22.6 µg/mL) | MIC [4]: 0.23 µM (≈ 0.416 µg/mL) | MIC (Escherichia coli D31): 7.5 µM (≈ 13.6 µg/mL) | MIC [5]: 6 µM (≈ 10.8 µg/mL) | MIC [6]: > 15 µM | MIC [7]: 12.5 µM (≈ 22.6 µg/mL) | MIC [8]: 0.4 µM (≈ 0.723 µg/mL) | MIC [9]: 3 µM (≈ 5.42 µg/mL) | MIC [10]: 15 µM (≈ 27.1 µg/mL) | MIC [11]: 6 µM (≈ 10.8 µg/mL) | MIC [12]: 15 µM (≈ 27.1 µg/mL) | MIC [13]: 0.4 µM (≈ 0.723 µg/mL) | MIC [14]: 3.75 µM (≈ 6.78 µg/mL) | MIC [15]: 0.4 µM (≈ 0.723 µg/mL)

SMILES: CC[C@H](C)[C@H](NC(=O)CNC(=O)[C@H](CO)NC(=O)[C@H](CC(C)C)NC(=O)[C@H](CC(C)C)NC(=O)CN)C(=O)N[C@@H](CC(C)C)C(=O)NCC(=O)N[C@@H](C)C(=O)NCC(=O)N[C@@H](CCCCN)C(=O)N[C@@H](CCCCN)C(=O)N[C@H](C(=O)N[C@H](C(=O)N[C@H]1CSSC[C@@H](C(=O)O)NC(=O)[C@H](CC(C)C)NC(=O)CNC(=O)[C@H](CO)NC(=O)[C@H](CC(C)C)NC(=O)CNC1=O)C(C)C)[C@@H](C)CC [GLLSGILGAGKKIVCGLSGLC]
MIC [16]: 0.51 µM (≈ 0.999 µg/mL) | MIC [17]: 2.55 µM (≈ 4.99 µg/mL) | MIC [18]: 32 µM (≈ 62.6 µg/mL) | MIC [19]: 1.28 µM (≈ 2.5 µg/mL) | MIC [20]: 5.1 µM (≈ 9.99 µg/mL) | MIC [21]: 5.1 µM (≈ 9.99 µg/mL) | MIC [22]: 5.1 µM (≈ 9.99 µg/mL) | MIC (Escherichia coli IS117#): 5.1 µM (≈ 9.99 µg/mL) | MIC (Escherichia coli IS218#): 2.55 µM (≈ 4.99 µg/mL) | MIC (Escherichia coli IS37#): 2.55 µM (≈ 4.99 µg/mL) | MIC [23]: ≥ 64 µM | MIC [6]: 1.28 µM (≈ 2.5 µg/mL) | MIC [24]: 5.1 µM (≈ 9.99 µg/mL) | MIC [8]: 2.55 µM (≈ 4.99 µg/mL) | MIC [25]: 1.28 µM (≈ 2.5 µg/mL) | MIC [26]: 5.1 µM (≈ 9.99 µg/mL) | MIC (Shigella dysenteriae): 2.55 µM (≈ 4.99 µg/mL) | MIC [27]: 2.55 µM (≈ 4.99 µg/mL) | MIC [28]: 10.2 µM (≈ 20 µg/mL) | MIC [29]: 10.2 µM (≈ 20 µg/mL) | MIC [30]: 32 µM (≈ 62.6 µg/mL)

SMILES: CC[C@H](C)[C@H](NC(=O)[C@H](CCCN=C(N)N)NC(=O)[C@@H](N)CCCN=C(N)N)C(=O)N[C@@H](CCCN=C(N)N)C(=O)N1CCC[C@H]1C(=O)N[C@@H](CCCN=C(N)N)C(=O)N1CCC[C@H]1C(=O)N1CCC[C@H]1C(=O)N[C@@H](CCCN=C(N)N)C(=O)N[C@@H](CC(C)C)C(=O)N1CCC[C@H]1C(=O)N[C@@H](CCCN=C(N)N)C(=O)N1CCC[C@H]1C(=O)N[C@@H](CCCN=C(N)N)C(=O)N1CCC[C@H]1C(=O)N[C@@H](CS)C(=O)O [RRIRPRPPRLPRPRPC]
MIC [22]: 11.3 µM (≈ 22.9 µg/mL) | MIC (Escherichia coli HB101): 11.3 µM (≈ 22.9 µg/mL)
